Here are results for 3 compounds from US20070112523A1 (priority 2003, published 2007).

The subject of data set [1] is vaccinia virus expressing the green fluorescent protein (vvGFP). Description: microbe, parasite or virus in culture. The note with it: for IC50: Orthopoxvirus vaccinia, BSC-40, 24 h. The format is cell-based.
The nature of data set [2]: in vitro. To be noted: African green monkey.
For data set [3] the following is noted: in vivo, po; cited from earlier work.

One may read the IC50 as the concentration at which inhibition is half-maximal.

`COC(=O)C(Cc1ccc(-c2ccc(F)c(Cl)c2)cc1)NC(=O)c1cc(-c2ccc(C(F)(F)F)cc2)ccc1O` (stereo not shown) [TTP-B, 3-(3′-chloro-4′-fluoro-biphenyl-4-yl)-2-[(4-hydroxy-4′-trifluoromethyl-biphenyl-3-carbonyl)-amino]-propionic acid methyl ester]: in data set [1], the “anti-viral effect in a cell culture assay (inhibition of viral replication)” value is recorded as “have an anti-viral effect” and the IC50 is approximately 4.6 µM. This compound yielded a CC50 in data set [2] of approximately 600 µM.

Turning to `Nc1ccn(C[C@@H](CO)OCP(=O)(O)O)c(=O)n1` [cidofovir], in data set [3], the “bio-availability when administered orally” value was “low bio-availability”.

Take `COc1c(CCNC(=O)c2cc3ccccc3cc2O)cccc1-c1ccc([N+](=O)[O-])cc1` [TTP-A, 3-hydroxy-naphthalene-2-carboxylic acid [2-(2-methoxy-4′-nitro-biphenyl-3-yl)-ethyl]-amide]: in data set [1], the “anti-viral effect in a cell culture assay (inhibition of viral replication)” value is recorded as “have an anti-viral effect” and the 50% inhibitory concentration (IC50) was approximately 12 µM. This compound also registered a CC50 in data set [2] of approximately 900 µM.
